The results in this text go back to patent publication US10196360B2, “Crystal forms of bedaquiline fumarate and preparation methods therefor” (Zhejiang Hisun Pharmaceutical Co., Ltd., priority 2015, dated 2019).

Structures are written as SMILES.

Series [1] can be described thus: Particle size test (Mastersizer 2000). The series is classed as physicochemical. The note with it: non-micronized, dispersant n-hexane, fumarate. As for the experimental part: The test conditions for the particle size involved in the present invention are: Mastersizer model: Mastersizer 2000; operation method: 20 mg of bedaquiline fumarate sample is taken, about 5.0 ml dispersant (n-hexane) is added, the sample is subjected to ultrasonication for 1.0 min, is allowed to stabilize for 0.5-1.0 min and then is tested.
Test Procedure: the Hydro2000SM injector was connected and the Small Volume Sample Dispersion Unit tachometer was turned on, then a suitable amount of ethanol was added to the sample cell to clean the detection channel of the instrument. A suitable amount of n-hexane (dispersant) was added to the dispersion cup, a suitable amount of n-hexane (dispersant) was inlet into the instrument to exhaust gas, the stirring rate was set to 2950 rpm, optical correction and background measurement were carried out.
The suspension was added to the sample cell until the opacity was between 15% to 20%, the suspension was allowed to stabilize for 0.5-1.0 min, the measurement time was 4 sec, the test results was saved automatically by the system.

Series [2] can be described thus: Solubility of the crystal forms in different solvents at 50° C. The series is classed as physicochemical.
Setting [3] is: N,N-dimethylformamide, fumarate.

As a reminder, the solubility is the dissolved amount per volume that the medium holds. As for `COc1nc2ccc(Br)cc2cc1[C@@H](c1ccccc1)[C@@](O)(CCN(C)C)c1cccc2ccccc12.O=C(O)/C=C/C(=O)O` [Crystal form I, (1R,2S)-1-(6-bromo-2-methoxyquinolin-3-yl)-4-dimethylamino-1-phenyl-2-(1-naphthyl)-2-butanol fumarate], the “D (0.1)” value in series [1] was determined as 4.991 um. Besides, the “D (0.5)” value in series [1] is recorded as 16.303 um. In addition, the “D (0.9)” value in series [1] was determined as 37.967 um. Moreover, the solubility in series [2] (Methanol, fumarate) is 2000 mg/mL; in series [2] (setting [3]) it was 1000 mg/mL; in series [2] (Tetrahydrofuran, fumarate) it was 1000 mg/mL; in series [2] (Water) it was “insoluble”.
As for `COc1nc2ccc(Br)cc2cc1[C@@H](c1ccccc1)[C@@](O)(CCN(C)C)c1cccc2ccccc12.O=C(O)/C=C/C(=O)O` [Crystal form II, (1R,2S)-1-(6-bromo-2-methoxyquinolin-3-yl)-4-dimethylamino-1-phenyl-2-(1-naphthyl)-2-butanol fumarate], in series [1], the “D (0.1)” value worked out at 3.146 um. Besides, in series [1], the “D (0.5)” value amounted to 12.646 um. Besides, in series [1], the “D (0.9)” value is reported as 37.019 um. Also, the solubility in series [2] (Methanol, fumarate) is 6000 mg/mL; in series [2] (setting [3]), 2000 mg/mL; in series [2] (Tetrahydrofuran, fumarate) it was 5000 mg/mL; in series [2] (Water) it was “insoluble”.
`COc1nc2ccc(Br)cc2cc1[C@@H](c1ccccc1)[C@@](O)(CCN(C)C)c1cccc2ccccc12.O=C(O)/C=C/C(=O)O` [Crystal form III, (1R,2S)-1-(6-bromo-2-methoxyquinolin-3-yl)-4-dimethylamino-1-phenyl-2-(1-naphthyl)-2-butanol fumarate]: the “D (0.1)” value in series [1] turned out to be 10.034 um. Besides, the “D (0.5)” value in series [1] is reported as 33.721 um. In series [1], the “D (0.9)” value is on record as 68.295 um. Besides, the solubility is 6000 mg/mL in series [2] (Methanol, fumarate); 3000 mg/mL in series [2] (setting [3]); 3000 mg/mL in series [2] (Tetrahydrofuran, fumarate); “insoluble” in series [2] (Water).
